Read-outs that look alike come from different tables or passages of the source.
Experiments:
Assay in all cases: MIC and MBC testing, broth microdilution
[1] = test system: S. aureus ATCC 29213; assay type: cell-based, Staphylococcus aureus; settings: S. aureus ATCC 29213; for MIC: 18 h
Description: (§1) The minimum inhibitory concentrations (MICs) and minimum bactericidal concentrations (MBCs) of the synthesized compounds effective against ESKAPE strains, S. aureus clinical isolates, and MRSA were investigated by the broth dilution method. Levofloxacin is a broad-spectrum antibacterial agent that is widely used in the treatment of ESKAPE infections. Therefore, levofloxacin was selected as the positive control for the preliminary activity screening. DMSO (0.1%) was selected as the negative control.
(§2) The minimum inhibitory concentration (MIC) of all synthesized compounds was tested by the broth microdilution method. In brief, compounds dissolved in DMSO were diluted twice continuously in a 96-well plate with MH broth. The ESKAPE pathogens (E. coli ATCC 25922, S. aureus ATCC 29213, K. pneumoniae ATCC 700603, A. baumannii ATCC 19606, P. aeruginosa ATCC 27853, and E. faecium ATCC 35667), clinical S. aureus isolates (LMY45, LMY46, LMY47, and LMY48) and methicillin-resistant Staphylococcus aureus (MRSA-1 and MRSA-2) were cultured in MH broth to logarithmic growth phase and then diluted to 1 × 10^6 CFU/mL in MH broth. Subsequently, the diluted bacterial solution was mixed with the diluted compound solution in a 96-well plate and incubated at 37 °C for a duration of 18 h. The MIC of the compounds was recorded as the lowest concentration at which no visible growth was observed. […] Each concentration was replicated thrice.

[2] = test system: E. coli ATCC 25922; assay type: cell-based, Escherichia coli
Description: as §1, §2

[3] = test system: K. pneumoniae ATCC 700603; assay type: cell-based, Klebsiella pneumoniae; settings: Klebsiella pneumoniae; for MIC: ATCC700603, 18 h, read-out: MIC; for MBC: ATCC700603, read-out: MBC
Description: as §1, §2

[4] = test system: clinical S. aureus isolate LMY47; assay type: cell-based, Staphylococcus aureus; settings: LMY47; for MIC: 18 h
Method: (§3) Furthermore, the MBC values of the compounds were detected.
as §2, with “h.” for “h. The MIC of the compounds was recorded as the lowest concentration at which no visible growth was observed.”

[5] = test system: clinical S. aureus isolate LMY45; assay type: cell-based, Staphylococcus aureus; settings: LMY45; for MIC: 18 h
Method: as §3
as §2, with “h.” for “h. The MIC of the compounds was recorded as the lowest concentration at which no visible growth was observed.”

[6] = test system: clinical S. aureus isolate LMY46; assay type: cell-based, Staphylococcus aureus; settings: LMY46; for MIC: 18 h
Method: as §3
as §2, with “h.” for “h. The MIC of the compounds was recorded as the lowest concentration at which no visible growth was observed.”

[7] = test system: MRSA-2; assay type: cell-based, Staphylococcus aureus; settings: MRSA-2; for MIC: 18 h
Method: as §3
as §2, with “h.” for “h. The MIC of the compounds was recorded as the lowest concentration at which no visible growth was observed.”

[8] = test system: MRSA-1; assay type: cell-based, Staphylococcus aureus; settings: MRSA-1; for MIC: 18 h
Method: as §3
as §2, with “h.” for “h. The MIC of the compounds was recorded as the lowest concentration at which no visible growth was observed.”

[9] = test system: clinical S. aureus isolate LMY48; assay type: cell-based, Staphylococcus aureus; settings: LMY48; for MIC: 18 h
Method: as §3
as §2, with “h.” for “h. The MIC of the compounds was recorded as the lowest concentration at which no visible growth was observed.”

[10] = test system: E. faecium ATCC 35667; assay type: cell-based, Enterococcus faecium; settings: E. faecium ATCC 35667; for MIC: 18 h
Description: as §1, §2

[11] = test system: P. aeruginosa ATCC 27853; assay type: cell-based, Pseudomonas aeruginosa
Description: as §1, §2

[12] = test system: A. baumannii ATCC 19606; assay type: cell-based, Acinetobacter baumannii
Description: as §1, §2

[13] = Staphylococcus aureus, ATCC29213, read-out: MIC
[14] = Staphylococcus aureus, ATCC29213, read-out: MBC
[15] = Escherichia coli, ATCC25922, 18 h, read-out: MIC
[16] = Escherichia coli, ATCC25922, read-out: MBC
[17] = Staphylococcus aureus, read-out: MIC
[18] = Staphylococcus aureus, read-out: MBC
[19] = Enterococcus faecium, ATCC35667, read-out: MIC
[20] = Enterococcus faecium, ATCC35667, read-out: MBC
[21] = Pseudomonas aeruginosa, ATCC27853, 18 h, read-out: MIC
[22] = Pseudomonas aeruginosa, ATCC27853, read-out: MBC
[23] = Acinetobacter baumannii, ATCC19606, 18 h, read-out: MIC
[24] = Acinetobacter baumannii, ATCC19606, read-out: MBC

[H]/N=C(\N)NN=C1CCCc2cc(OCCCCCC)ccc21 [Compound 2C, (E)-2-(6-(hexyloxy)-3,4-dihydronaphthalen-1(2H)-ylidene)hydrazine-1-carboximidamide]
4 µg/mL: MIC [2, 15] | MBC [2, 16] | MBC [7, 18] | MIC [8, 17] | MIC [9, 17] | MIC [12, 23] | MBC [12, 24]
1 µg/mL: MIC [1, 13]
32 µg/mL: MBC [5, 18] | MBC [9, 18]
16 µg/mL: MBC [6, 18] | MBC [8, 18] | MBC [11, 22]
2 µg/mL: MIC [4, 17] | MIC [7, 17] | MIC [10, 19]
8 µg/mL: MBC [1, 14] | MIC [3] | MBC [3] | MBC [4, 18] | MIC [5, 17] | MIC [6, 17] | MBC [10, 20] | MIC [11, 21]

[H]/N=C(\N)NN=C1CCCc2cc(OCCCCCCCCC)ccc21 [Compound 2F, (E)-2-(6-(nonyloxy)-3,4-dihydronaphthalen-1(2H)-ylidene)hydrazine-1-carboximidamide]
8 µg/mL: MBC [1, 14] | MBC [4, 18]
> 32 µg/mL: MIC [2, 15] | MIC [3] | MIC [11, 21] | MIC [12, 23]
2 µg/mL: MIC [1, 13] | MIC [4, 17] | MIC [5, 17] | MIC [6, 17] | MBC [7, 18] | MIC [8, 17] | MBC [8, 18] | MBC [9, 18] | MIC [10, 19]
1 µg/mL: MIC [7, 17] | MIC [9, 17]
4 µg/mL: MBC [5, 18] | MBC [6, 18] | MBC [10, 20]

[H]/N=C(\N)NN=C1CCCc2cc(OCc3c(F)cccc3F)ccc21 [Compound 1F, (E)-2-(6-((2,6-difluorobenzyl)oxy)-3,4-dihydronaphthalen-1(2H)-ylidene)hydrazine-1-carboximidamide]
> 32 µg/mL: MBC [6, 18] | MIC [11, 21]
4 µg/mL: MIC [1, 13] | MIC [4, 17] | MIC [5, 17] | MIC [6, 17] | MIC [7, 17] | MIC [8, 17] | MIC [9, 17]
32 µg/mL: MIC [3] | MBC [3] | MBC [8, 18]
16 µg/mL: MBC [1, 14] | MIC [2, 15] | MBC [2, 16] | MBC [7, 18] | MBC [9, 18] | MBC [10, 20] | MIC [12, 23] | MBC [12, 24]
8 µg/mL: MBC [4, 18] | MBC [5, 18] | MIC [10, 19]

C[C@H]1COc2c(N3CCN(C)CC3)c(F)cc3c(=O)c(C(=O)O)cn1c23 [Levofloxacin, reference compound]
2 µg/mL: MBC [10, 20] | MBC [11, 22] | MBC [12, 24]
4 µg/mL: MBC [3]
≤ 1 µg/mL: MIC [1, 13] | MBC [1, 14] | MIC [2, 15] | MBC [2, 16] | MIC [3] | MIC [10, 19] | MIC [11, 21] | MIC [12, 23]

[H]/N=C(\N)NN=C1CCCc2cc(OCc3ccc(C#N)cc3)ccc21 [Compound 1V, (E)-2-(6-((4-cyanobenzyl)oxy)-3,4-dihydronaphthalen-1(2H)-ylidene)hydrazine-1-carboximidamide]
> 32 µg/mL: MBC [10, 20] | MIC [11, 21]
16 µg/mL: MIC [2, 15] | MBC [8, 18] | MIC [10, 19] | MIC [12, 23]
4 µg/mL: MIC [5, 17] | MIC [6, 17]
32 µg/mL: MBC [1, 14] | MBC [2, 16] | MIC [3] | MBC [4, 18] | MBC [6, 18] | MBC [12, 24]
8 µg/mL: MIC [1, 13] | MIC [4, 17] | MBC [5, 18] | MIC [7, 17] | MBC [7, 18] | MIC [8, 17] | MIC [9, 17] | MBC [9, 18]

(E)-2-(6-(4-isopropylphenoxy)-3,4-dihydronaphthalen-1(2H)-ylidene)hydrazine-1-carboximidamide [Compound 1X]
32 µg/mL: MIC ([11]; 18 h)
> 32 µg/mL: MBC [11]
1 µg/mL: MIC [7]
8 µg/mL: MBC [2] | MBC [4] | MBC [8] | MBC [9] | MBC [12]
2 µg/mL: MIC [1] | MIC [4] | MIC [5] | MBC [6] | MIC [6] | MIC [9] | MIC [10]
4 µg/mL: MBC [1] | MIC ([2]; 18 h) | MBC [5] | MBC [7] | MIC [8] | MBC [10] | MIC ([12]; 18 h)
